Patent US9598447B2, “Phosphorus-substituted quinoxaline-type piperidine compounds and uses thereof” (Purdue Pharma L.P., priority 2010, dated 2017)
Read-outs that look alike come from different tables or passages of the source.

Biological target: delta opioid receptor (Homo sapiens (Human), UniProt P41143)
Experiment: In vitro delta-opioid receptor binding assay ([3H]-Naltrindole displacement)
[1] = recombinant receptor expressed in CHO-K1 cells, read-out: Ki [Average ± Std Deviation] Opioid Receptor Delta

delta opioid receptor, sequence (P41143 whole entry): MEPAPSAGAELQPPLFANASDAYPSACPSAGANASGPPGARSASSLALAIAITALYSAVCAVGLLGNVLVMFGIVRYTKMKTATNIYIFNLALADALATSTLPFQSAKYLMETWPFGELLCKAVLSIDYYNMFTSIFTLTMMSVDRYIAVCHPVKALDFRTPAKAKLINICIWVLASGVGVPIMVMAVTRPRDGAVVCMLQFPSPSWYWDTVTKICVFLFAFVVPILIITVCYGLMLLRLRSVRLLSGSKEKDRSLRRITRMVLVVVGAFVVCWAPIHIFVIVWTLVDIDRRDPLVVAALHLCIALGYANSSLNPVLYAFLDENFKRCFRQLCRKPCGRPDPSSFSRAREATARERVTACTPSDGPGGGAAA

Compound	Ki [1] [µM]	Ki [µM]
O=c1c(P(=O)(O)O)nc2ccccc2n1[C@H]1C[C@H]2CC[C@@H](C1)N2C12CC3CC(CC1C3)C2 [BB, (4-((1R,3R,5S)-8-((2R,3as,5S,6aS)-octahydro-2,5-methanopentalen-3a-yl)-8-azabicyclo[3.2.1]octan-3-yl)-3-oxo-3,4-dihydroquinoxalin-2-yl)phosphonic acid]	> 20	–
O=c1c(P(=O)(O)O)nc2ccccc2n1[C@H]1C[C@H]2CCC[C@@H](C1)N2C1CCCCCCC1 [DD, (4-((1R,3R,5S)-9-cyclooctyl-9-azabicyclo[3.3.1]nonan-3-yl)-3-oxo-3,4-dihydroquinoxalin-2-yl)phosphonic acid]	> 20	–
O=C(NP(=O)(O)O)c1nc2ccccc2n([C@H]2C[C@H]3CCC[C@@H](C2)N3C2CCCCCCC2)c1=O [KK, (4-((1R,3R,5S)-9-cyclooctyl-9-azabicyclo[3.3.1]nonan-3-yl)-3-oxo-3,4-dihydroquinoxaline-2-carbonyl)phosphoramidic acid]	–	> 20
